In ChEMBL document CHEMBL6114983 (Bioorg Med Chem, 2025):

Target: Glutaminyl-peptide cyclotransferase (Homo sapiens, UniProt Q16769)
Sequence (Q16769 whole entry): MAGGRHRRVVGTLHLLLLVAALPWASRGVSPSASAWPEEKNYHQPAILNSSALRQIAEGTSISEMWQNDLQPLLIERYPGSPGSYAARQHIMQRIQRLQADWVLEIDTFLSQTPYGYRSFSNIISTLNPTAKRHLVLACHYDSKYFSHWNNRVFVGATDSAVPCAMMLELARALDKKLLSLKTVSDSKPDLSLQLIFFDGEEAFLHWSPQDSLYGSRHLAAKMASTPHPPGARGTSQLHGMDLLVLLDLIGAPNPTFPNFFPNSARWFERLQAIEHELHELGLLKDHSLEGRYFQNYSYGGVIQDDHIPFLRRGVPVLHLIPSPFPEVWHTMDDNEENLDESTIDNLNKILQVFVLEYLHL

COc1ccc(N(C(=S)NCCCn2cncc2C)C2CCN(C)CC2)cc1OC
IC50: 3.36 nM
